Patent publication US20180290961A1, “METHOD AND SYSTEM FOR OBTAINING A CARBOXYLIC ACID WHICH IS PRODUCED IN A FERMENTATION PROCESS” (THYSSENKRUPP INDUSTRIAL SOLUTIONS AG, priority 2015, published 2018)

Assay: precipitation of fermentatively prepared carboxylic acid after acidification
Assay type: physicochemical
Conditions: not given
Excerpt: The invention is based on the observation that sparingly soluble carboxylic acids such as fumaric acid and adipic acid cannot be worked up satisfactorily using the known purification methods. […] In order to compensate for the resulting loss of product, alternative purification methods are necessary.

Question: For `O=C(O)/C=C/C(=O)O` [fumaric acid], which “concentration above which the acid precipitates after acidification” value is on record?
Answer: Its value is “about 5 g/l”.

Assay: physchem
Conditions: 20 °C, water

Question: For `O=C(O)/C=C/C(=O)O` [fumaric acid], which solubility is on record?
Answer: Its solubility is ≤ 15 mg/mL.

Question: With `N[C@@H](Cc1c[nH]cn1)C(=O)O` [histidine] as the molecule, how does the solubility read?
Answer: Its solubility is ≤ 50 mg/mL.

Question: For `CC[C@H](C)[C@H](N)C(=O)O` [isoleucine], which solubility is on record?
Answer: The solubility was ≤ 50 mg/mL.

Question: With `CC(C)C[C@H](N)C(=O)O` [leucine] as the molecule, how does the solubility read?
Answer: Its solubility is ≤ 50 mg/mL.

Question: For `CSCC[C@H](N)C(=O)O` [methionine], which solubility is on record?
Answer: Its solubility is ≤ 50 mg/mL.

Question: Which solubility does the source give for `N[C@@H](Cc1ccccc1)C(=O)O` [phenylalanine] here?
Answer: Its solubility is ≤ 50 mg/mL.

Question: Which solubility does the source give for `O=C(O)c1ccccc1O` [salicylic acid] here?
Answer: Its solubility is ≤ 15 mg/mL.
